Results reported in patent publication US20200129583A1, “COMPOSITION FOR TREATING ACUTE URINARY RETENTION” (ANTEV LIMITED, priority 2018, published 2020).

Columns and labels:
[1] = test system: male patients suffering from BPH; assay: International Prostate Symptom Score (I-PSS) in phase II placebo-controlled study; assay type: in vivo, human
Experimental: (§1) A phase II randomised, double blind, placebo-controlled, multi-centre, multi national study was conducted in order to investigate the use of an Teverelix TFA formulation in the composition according to the invention. In said study the International Prostate Symptom Score (I-PSS), the prostate volume, the urinary flow rate and the testosterone level in males suffering from BPH were evaluated.
(§2) The Teverelix TFA formulation was reconstituted as follows. 0.8 ml 5% mannitol was added to 60 mg of the LHRH antagonist Teverelix trifluoroacetate. The mixture was stirred using vortex during one minute providing a dosage formulation of Teverelix TFA as a flowing milky pearly microcrystalline aqueous suspension. The suspension is made of microcrystals of about 10 μm length. Corresponding placebo formulations, without Teverelix TFA, were also prepared
(§3) Formulation A: 60 mg Teverelix TFA in 0.8 ml 5% mannitol
(§4) Two single injections of Formulation A and Formulation A-placebo was administered s.c. at an interval of 48 hours to 81 male patients (41 on A and 40 on A-placebo) suffering from BPH.
The International Prostate Symptom Score (I-PSS) is based on the answers to seven questions concerning urinary symptoms and one question concerning quality of life. Each question concerning urinary symptoms allows the patient to choose one out of six answers indicating increasing severity of the particular symptom. The answers are assigned points from 0 to 5. The total score can therefore range from 0 to 35 (asymptomatic to very symptomatic).

[2] = test system: male patients suffering from BPH; assay: Prostate volume in phase II placebo-controlled study; assay type: in vivo, human; settings: two s.c. injections of 60 mg at an interval of 48 hours
Experimental: as §1, §2, §3, §4

[3] = test system: male patients suffering from BPH; assay: Urinary flow rate (Qmax) in phase II placebo-controlled study; assay type: in vivo, human; settings: two s.c. injections of 60 mg at an interval of 48 hours
Experimental: as §1, §2, §3, §4

[4] = test system: male patients suffering from BPH; assay: Serum testosterone level in phase II placebo-controlled study; assay type: in vivo, human; settings: two s.c. injections of 60 mg at an interval of 48 hours; FIG. 4
Experimental: as §1, §2, §3, §4

[5] = test system: male patients suffering from BPH; assay: Side effects with the use of Teverelix TFA; design: species or system human; settings: in vivo
Experimental: as §1, §4

N-Ac-d-Nal^1, d-pCl-Phe^2, d-Pal^3, d-(Hci)^6, Lys(iPr)^8, d-Ala^10 trifluoroacetate [Teverelix TFA]
IPSS reduction ([1]; at 2 weeks): 12.6% | IPSS reduction ([1]; at 16 weeks): 33.9% | improvement in quality of life score (QoL) ([1]; at 16 weeks): 32.8% | time to improvement of symptoms (I-PSS) ([1]; two s.c. injections of 60 mg at an interval of 48 hours): within two weeks | improvement on I-PSS ([1]; two s.c. injections of 60 mg at an interval of 48 hours, 16-week study, FIG. 1): 39.9% | time to prostate volume reduction after initiating therapy [2]: within four weeks | prostate volume decrease ([2]; FIG. 2): 11.5% | time to significant increase in the flow rate [3]: within the first two weeks | increase in maximum urinary flow rate (Qmax) ([3]; at 16 weeks): 43% | reduction in the testosterone level [4]: immediate reduction | time for testosterone level to return to baseline levels [4]: within eight weeks | serious side effects [5]: no serious side effects
